The values below come from patent US7592160B2, “Processes for producing isomaltose and isomaltitol and use thereof” (Kabushiki Kaisha Hayashibara Seibutsu Kagaku Kenkyujo, priority 2001, dated 2009).

Each structure is given as a SMILES string.

Experiment [1] relates to α-isomaltosyl-transferring enzyme. In words: Influence of metal ions on α-isomaltosyl-transferring enzyme activity (S1 strain). It counts as biochemical, Arthrobacter ramosus S1 strain. As to conditions: for effect on the enzyme activity, in words: 1 mM, Table 21; for Relative activity (%): in the presence of 1 mM of each metal-ion, None = 100. On the procedure: (§1) The activity of α-isomaltosyl-transferring enzyme was assayed by dissolving panose in 100 mM acetate buffer (pH 6.0) to give a concentration of 2% (w/v) for a substrate solution, adding a 0.5 ml of an enzyme solution to 0.5 ml of the substrate solution, enzymatically reacting the mixture solution at 35° C. for 30 min, suspending the enzymatic reaction by boiling the solution for 10 min, and quantifying glucose, among the cyclotetrasaccharide and glucose formed mainly in the reaction mixture, by the glucose oxidase method. One unit activity of α-isomaltosyl-transferring enzyme is defined as the enzyme amount that forms one micromole of glucose per minute under the above enzymatic reaction conditions. Throughout the specification, the enzymatic activity of α-isomaltosyl-transferring enzyme means the unit(s) assayed as above.
(§2) The influence of metal ions on the activity of α-isomaltosyl-transferring enzyme was examined in the presence of 1 mM of each metal-ion according to the assay for its enzyme activity.

Experiment [2] has the same test system. In words: Influence of metal ions on α-isomaltosyl-transferring enzyme activity (C9 strain). The format is biochemical, Bacillus globisporus C9 strain. As to conditions: for effect on the enzyme activity, in words: 1 mM, Table 4; for Relative activity (%): in the presence of 1 mM of each metal-ion, None = 100. The protocol: as §1, §2
The subject of experiment [3] is α-isomaltosylglucosaccharide-forming enzyme. As to the kind of experiment: Influence of metal ions on α-isomaltosylglucosaccharide-forming enzyme activity (C11 strain). It counts as biochemical, Bacillus globisporus C11 strain. Particulars: for effect on the enzyme activity, in words: 1 mM, Table 7; for Relative activity (%): in the presence of 1 mM of each metal-ion, None = 100.

For experiment [4] the test system is unchanged. As to the kind of experiment: Influence of metal ions on α-isomaltosylglucosaccharide-forming enzyme activity (A19 strain). The format is biochemical, Arthrobacter globiformis A19 strain. Particulars: for effect on the enzyme activity, in words: 1 mM, Table 19; for Relative activity (%): in the presence of 1 mM of each metal-ion, None = 100.
For experiment [5] the test system is unchanged. As to the kind of experiment: Influence of metal ions on α-isomaltosylglucosaccharide-forming enzyme activity (N75 strain). It counts as biochemical, Bacillus globisporus N75 strain. Particulars: for effect on the enzyme activity, in words: 1 mM, Table 13; for Relative activity (%): in the presence of 1 mM of each metal-ion, None = 100. The protocol:
(§3) About 20 L of a fresh preparation of the same liquid culture medium as used in the above seed culture were placed in a 30-L fermentor, sterilized by heating, and then cooled to 27° C. and inoculated with 1% (v/v) of the seed culture, followed by culturing at 27° C. and pH 6.0 to 8.0 for 48 hours under aeration-agitation conditions. […] These activities were assayed as follows: The activity of α-isomaltosylglucosaccharide-forming enzyme was assayed by dissolving maltotriose in 100 mM acetate buffer (pH 6.0) to give a concentration of 2% (w/v) for a substrate solution, adding a 0.5 ml of an enzyme solution to a 0.5 ml of the substrate solution, enzymatically reacting the mixture solution at 35° C. for 60 min, suspending the enzymatic reaction by boiling the solution for 10 min, and quantifying maltose, among the isomaltosyl maltose and maltose formed mainly in the reaction mixture, on HPLC disclosed in Experiment 1. One unit activity of α-isomaltosylglucosaccharide-forming enzyme is defined as the enzyme amount that forms one micromole of maltose per minute under the above enzymatic reaction conditions. Throughout the specification, the enzymatic activity of α-isomaltosylglucosaccharide-forming enzyme means the unit(s) assayed as above.
(§4) The influence of metal ions on the activity of α-isomaltosylglucosaccharide-forming enzyme was examined in the presence of 1 mM of each metal-ion according to the assay for its enzyme activity.

Experiment [6] relates to α-isomaltosyl-transferring enzyme. As to the kind of experiment: Influence of metal ions on α-isomaltosyl-transferring enzyme activity (N75 strain). As to conditions: for effect on the enzyme activity, in words: 1 mM, Table 14; for Relative activity (%): in the presence of 1 mM of each metal-ion, None = 100. The format is biochemical, Bacillus globisporus N75 strain. The protocol:
as §1
The influence of temperature and pH on the activity of α-isomaltosyl-transferring enzyme was examined in accordance with the assay for its enzyme activity. […] The thermal stability of the enzyme was determined by incubating the testing enzyme solutions in the form of 20 mM acetate buffer (pH 6.0) at prescribed temperatures for 60 min, cooling the resulting enzyme solutions with water, and assaying the remaining enzyme activity of each solution. The pH stability of the enzyme was determined by keeping the testing enzyme solutions in the from of 50 mM buffers having prescribed pHs at 4° C. for 24 hours, adjusting the pH of each solution to 6.0, and assaying the remaining enzyme activity of each solution. […] The influence of metal ions on the activity of α-isomaltosyl-transferring enzyme was examined in the presence of 1 mM of each metal-ion according to the assay for its enzyme activity.

The test system is the same in experiment [7]. In words: Influence of metal ions on α-isomaltosyl-transferring enzyme activity (C11 strain). Particulars: for effect on the enzyme activity, in words: 1 mM, text on Table 8; for Relative activity (%): in the presence of 1 mM of each metal-ion, None = 100. The format is biochemical, Bacillus globisporus C11 strain. On the procedure:
as §1, §2

For experiment [8], the system named is α-isomaltosylglucosaccharide-forming enzyme. As to the kind of experiment: Influence of metal ions on α-isomaltosylglucosaccharide-forming enzyme activity (C9 strain). Particulars: for effect on the enzyme activity, in words: 1 mM, Table 3; for Relative activity (%): in the presence of 1 mM of each metal-ion, None = 100. The format is biochemical, Bacillus globisporus C9 strain. On the procedure:
as §3, §4

For `O=C(O)CN(CCN(CC(=O)O)CC(=O)O)CC(=O)O` [EDTA, ethylenediaminetetraacetic acid], the “effect on the enzyme activity, in words” value in experiment [1] is reported as “neither activated”; in experiment [2], “not inhibited”; in experiment [3], “strongly inhibited”; in experiment [4] it was “strongly inhibited”; in experiment [5], “strongly inhibited”; in experiment [6], “not inhibited”. In addition, the “effect on the enzyme activity, in words” value in experiment [7] is “not inhibited”; in experiment [8], “strongly inhibited”. The “Relative activity (%)” value in experiment [1] is reported as 91%; in experiment [2], 104%; in experiment [3], 24%; in experiment [4], 2%; in experiment [5] it was 35%; in experiment [6], 92%. The “Relative activity (%)” value in experiment [7] amounted to 98%; in experiment [8] it was 20%.
As for `[Hg+2]` [Hg^2+], the “effect on the enzyme activity, in words” value in experiment [1], in experiment [2], in experiment [3], in experiment [4], in experiment [5] and in experiment [6] was “strongly inhibited” each time. For the same molecule, the “effect on the enzyme activity, in words” value in experiment [7] and in experiment [8] was “strongly inhibited” each time. Besides, the “Relative activity (%)” value in experiment [1] was determined as 0.1%; in experiment [2], 1%; in experiment [3], 4%; in experiment [4] it was 0%; in experiment [5] it was 1%; in experiment [6], 0.5%. For the same molecule, the “Relative activity (%)” value in experiment [7] is recorded as 2%; in experiment [8] it was 4%.
`[Pb+2]` [Pb^2+]: the “Relative activity (%)” value in experiment [1] is recorded as 85%; in experiment [2], 89%; in experiment [3] it was 101%; in experiment [4], 43%; in experiment [5] it was 86%; in experiment [6], 69%. Further, the “Relative activity (%)” value in experiment [7] came to 74%; in experiment [8], 103%.
Turning to `[Sr+2]` [Sr^2+], the “Relative activity (%)” value amounted to 101% in experiment [1]; 101% in experiment [2]; 83% in experiment [3]; 102% in experiment [4]; 85% in experiment [5]; 91% in experiment [6]. Also, the “Relative activity (%)” value turned out to be 93% in experiment [7] and 80% in experiment [8]. For the same molecule, the “effect on the enzyme activity, in words” value in experiment [3] and in experiment [8] was “also inhibited” each time.
As to `[Zn+2]` [Zn^2+], the “Relative activity (%)” value is 78% in experiment [1]; 88% in experiment [2]; 91% in experiment [3]; 56% in experiment [4]; 82% in experiment [5]; 75% in experiment [6]. In addition, the figures for the “Relative activity (%)” value in experiment [7] and in experiment [8] were 83% and 92%, respectively.
